Laboratory results published in ChEMBL document CHEMBL1275575, “Susceptibility of Mycobacterium bovis BCG vaccine strains to antituberculous antibiotics” (Antimicrob Agents Chemother, 2009).

System: Homo sapiens
Experiment: Drug level in human serum at 10 mg/kg
Format: ADME, organism-based
Set-up: dose 10 mg/kg
Conditions: in vivo

In the case of NNC(=O)c1ccncc1 [ISONIAZID], the Drug uptake is reported as 0.4 µg/mL.
